# T1: CD46 (human, UniProt P15529 35-392)
# T1 construct: whole, on cells; also called cell surface CD46
# T1 sequence (looked up): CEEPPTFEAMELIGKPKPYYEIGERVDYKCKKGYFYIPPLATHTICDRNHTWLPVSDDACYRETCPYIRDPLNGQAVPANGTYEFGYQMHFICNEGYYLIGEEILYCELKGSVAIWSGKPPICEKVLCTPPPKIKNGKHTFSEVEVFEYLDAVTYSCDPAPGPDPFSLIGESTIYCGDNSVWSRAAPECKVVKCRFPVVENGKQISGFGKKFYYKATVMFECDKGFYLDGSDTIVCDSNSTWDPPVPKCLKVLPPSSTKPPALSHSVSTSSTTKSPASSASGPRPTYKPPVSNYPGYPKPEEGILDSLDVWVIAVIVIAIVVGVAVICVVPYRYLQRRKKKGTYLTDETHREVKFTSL
# B1: YS5 (antibody, human IgG1, lambda, V domains shown)
# VH: QVQLVQSGGGVVQPGRSLRLACAASGLTVNNYAMHWVRQAPGKGLEWVAVISYDGNNKYYADSVKGRFTISRDNSKNTLYLQMNSLRAEDTAVYYCAKGGGYFDLWGRGTLVTVSS
# VL: QSVLTQPPSVSGAPGQRVTISCTGSSSNIGAGYDVHWYQQLPGTAPKLLIYGNNNRPSGVPDRFSGSKSGTSASLAITGLQAEDEADYYCSSYTSGTWLFGGGTKLTVLG
# notes: The format used in the assay is not otherwise stated; also called YS5FL; anti-CD46 antibody YS5
# Tests used:
# [1] = tested on: CD46 cell surface expression on RPMI8226 cells; experiment: CD46 cell surface expression on RPMI8226 cells by FACS / flow cytometry; format: cell-based; conditions: for CD46 cell surface expression (MFI, flow cytometry): RPMI8226, 7 days 37° C.; for CD46 upregulation on RPMI8226 cells: 7-day exposure to varying concentrations, FACS on day-7; for CD46 expression (FACS): RPMI8226 cells treated with IMiDs for 3 and 10 days
# Description: Example 1: CD46 upregulation by exposure to pomalidomide and lenalidomide (FIGS. 1-2). The effect of pomalidomide and lenalidomide exposure to multiple myeloma (RPMI8226) cells was studied. RPMI8226 cells were treated with IMiDs (Pomalidomide and Lenalidomide) for 3 and 10 days (FIG. 1). CD46 expression was analyzed by FACS. CD38 was also measured as a reference. IMiDs-induced cell surface upregulation was observed only to selective antigens, e.g., CD46 but not CD38.
# FACS was performed on day-7. […] FACS was performed on day-14.
# FIG. 6: The multiple myeloma cell line RPMI8226 was incubated with 10 μM pomalidamide (pom) for 14 days, washed, and further incubated with 10 nM dexamethasone (dex) for 7 days. Cell surface CD46 expression was assessed by flow cytometry. MFI: median fluorescence intensity. Multiple group comparison was performed using One-way ANOVA. ** p<0.01; ****p<0.0001.
# Methods: RMPI8226 cells were exposed to varying concentrations of the Stat3 inhibitor C188-9 and the glucocorticoid receptor inhibitor mifepristone for 7 days at 37° C. in culture media, and cell surface CD46 expression is detected by flow cytometry using the anti-CD46 antibody YS5 followed by AlexaFluo-617 labeled anti-human Fc secondary antibody. MFI (median fluorescence intensity) was recorded and analyzed by One-way ANOVA.
# CD46 = molecular target: T1, CD46; experiment: flow cytometry on RPMI8226 cells with a labelled anti-human Fc secondary antibody
# Description: MFI (median fluorescence intensity) was recorded and analyzed by One-way ANOVA.
molecule,measurement,setting,value
"COc1ccc(S(=O)(=O)Nc2cc(-c3c(O)ccc4ccccc34)c(O)c3ccccc23)cc1 [C188-9, N-(1′, 2-Dihydroxy-1,2′-binaphthalen-4′-yl)-4-methoxybenzenesulfonamide]","CD46 cell surface expression (MFI, flow cytometry)",[1]; high concentrations (50 μM),inhibits
same,"CD46 cell surface expression (MFI, flow cytometry)",[1]; low/mid concentrations (10 and 20 μM),stimulates
Nc1cccc2c1CN(C1CCC(=O)NC1=O)C2=O (stereo not drawn) [lenalidomide],CD46 upregulation on RPMI8226 cells,[1],upregulation
same,CD46 expression (FACS),[1],upregulation
CC#C[C@]1(O)CC[C@H]2[C@@H]3CCC4=CC(=O)CCC4=C3[C@@H](c3ccc(N(C)C)cc3)C[C@@]21C [mifepristone],"CD46 cell surface expression (MFI, flow cytometry)",[1]; mifepristone at high concentrations (50 μM),inhibits
Nc1cccc2c1C(=O)N(C1CCC(=O)NC1=O)C2=O (stereo not drawn) [pomalidomide],CD46 upregulation on RPMI8226 cells,[1],upregulation
same,CD46 expression (FACS),[1],upregulation
same,CD46 upregulation on multiple myeloma cell surface,[1]; prior exposure for a short period (7-10 days),rather persistent CD46 upregulation
B1,binding result,CD46,binds

# Reference: patent US20240101699A1, “MODULATION OF CD46 CELL SURFACE EXPRESSION AND THERAPEUTIC USE THEREOF” (The Regents of the University of California, priority 2021, published 2024)
